How the values were obtained:
BCL-xL/FITC-BID = molecular target: T1, BCL-xL/FITC-BID (Homo sapiens, UniProt Q07817, DEL27-82); assay: Fluorescence anisotropy competition assay, BCL-xL/FITC-BID; type: binding; conditions: competition titration, 20-21 h incubation
T1 construct: made in house

[1] = Sedimentation-equilibrium analytical ultracentrifugation; type: physicochemical; conditions: AUC, relative to monomer molecular mass, 20 °C, PBS, 50 μM of each peptide
Description: Sedimentation equilibrium experiments were prepared in PBS (137 mM NaCl, 2.7 mM KCl, 8.2 mM Na2HPO4 and 1.8 mM KH2PO4) at 50 μM peptide concentration for homomeric assemblies and 50 μM peptide concentration of both peptides for heteromeric assemblies and to 120 μL. The reference channel was loaded with 130 μL of PBS solution. Equilibrium distributions were measured twice per speed, in 4 krpm increments, and with rotor speeds from 40 to 60 krpm. Data were fitted to single ideal species models using Ultrascan II (; http://www.ultrascan.uthscsa.edu). […] 95% confidence limits were obtained by Monte Carlo analysis of the fits. The partial specific volume for each of the peptides and the buffer density were calculated using Ultrascan II.
Beckman Proteomelab XL -I analytical ultracentrifuge u sing an An -60 Ti rotor and 2-channel centrepiec es.
Sedimentation equilibrium experiments were made up in PBS (137 mM NaCl, 2.7 mM KCl, 8.2 mM
Na2HP O4 and 1.8 mM KH2PO4) at 50 µM peptide concentration for homomeric assemblies and 50 µM
peptide concentration of both peptides for heteromeric assemblies and to 120 µL. The referenc e channel
was loaded with 130 µL of PBS solution. Equilibrium distributions were measured twice per speed, in 4
krpm increments, and with rotor speeds from 40 to 60 krpm. Data were fitted to single ideal species models […]
were calculated using Ultrascan II.

MCL-1/FITC-BID = molecular target: T2, MCL-1/FITC-BID (Homo sapiens, UniProt Q07820); assay: Fluorescence anisotropy competition assay, MCL-1/FITC-BID; type: binding; conditions: for Displacement of FITC-BID from MCL-1 (in words) / IC50 MCL-1/BID: 150 nM MCL-1, 25 nM FITC-BID; for IC50 MCL-1/BID: Table 2, 21 °C, Tris buffer pH 7.4 + 0.01% Triton-X-100, 20-21 h incubation, triplicate
T2 construct: made in house

[2] = Circular dichroism spectroscopy and thermal denaturation; type: physicochemical; conditions: for TM (midpoint of thermal denaturation): MRE222 monitored 5 to 90 °C at 40 °C h^–1, PBS pH 7.4, 50 μM of each peptide; for % helicity: from MRE222, 20 °C, calculation per ref 68
Source text: (A & B) CC-Di (pale green), CC-Di_S (lime), CC-Di_E1 (green), CC-Di_E2 (olive). (C & D) CC-Di-A (pink), CC-Di-B (cyan), CC-Di-A : CC-Di-B mixture (purple). (E & F) CC-Di-A_S (red), CC-Di-B (cyan), CC-Di-A_S : CC-Di-B mixture (brown). (G & H) CC-Di-A (pink), CC-Di-B_S (blue), CC-Di-A : CC-Di-B_S mixture (indigo). For heteromeric assemblies (i.e. Panels C–H) the theoretical spectra expected should the pairs of peptides not interact are depicted by grey dashes. Conditions: all experiments were performed in phosphate-buffered saline (PBS; pH 7.4) at 50 μM concentration of each peptide. Equilibrium CD spectra were recorded at 20 °C.
CD spectra were collected using a JASCO J810 spectropolarimeter coupled to a Peltier temperature controller. Peptide-containing solutions were freshly prepared in PBS (pH 7.4) with concentrations calculated from UV absorption at 280 nm (ε(Tyr) = […]).[78] Samples were examined at 50 μM concentration for lone peptides and 50 + 50 μM for two peptide heterodimeric examples, in a 1 mm quartz cuvette. […] Thermal denaturation experiments were conducted by ramping temperature from 5 to 90 °C at 40 °C h^–1. Full spectra (260–190 nm, 5 scans) were recorded at 5 °C and 20 °C, while the CD signal at 222 nm was recorded across the full temperature range at 1 °C intervals (1 nm interval, 1 nm bandwidth, 16 s response time).

hDM2/Flu-p53 = type: binding; conditions: read-out: IC50, inhibition of Flu-p53/hDM2 (positive control)
[3] = PBS pH 7.4, 50 μM of each peptide

T2 sequence (Q07820 173-327 limits assumed): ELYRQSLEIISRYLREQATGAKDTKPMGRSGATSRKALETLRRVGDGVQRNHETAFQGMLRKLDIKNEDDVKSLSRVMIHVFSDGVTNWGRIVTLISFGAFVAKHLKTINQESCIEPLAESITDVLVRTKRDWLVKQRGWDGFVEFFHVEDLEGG
T1 sequence (Q07817 with tags, fused parts or gaps DEL27-82 limits assumed, species assumed): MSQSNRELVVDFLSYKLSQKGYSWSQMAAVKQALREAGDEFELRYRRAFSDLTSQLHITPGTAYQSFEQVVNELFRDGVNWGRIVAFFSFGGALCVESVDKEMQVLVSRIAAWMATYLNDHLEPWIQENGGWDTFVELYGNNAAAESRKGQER

| Compound | Displacement of FITC-BID from MCL-1 (in words) (MCL-1/FITC-BID) | IC50 MCL-1/BID (MCL-1/FITC-BID) | TM (midpoint of thermal denaturation) [2] | % helicity [2, 3] | also measured |
| --- | --- | --- | --- | --- | --- |
| Ac-GEIAALKQEILRLIGDNVALKQEIAALKQGYG-NH2 [CC-Di_S] | – | – | – | – | Inhibition of BCL-xL/FITC-BID (in words) (BCL-xL/FITC-BID): inconclusive |
| Ac-G EIAALKQ EIAALKK ENAALKQ EIAALKQ GYG-NH [CC-Di, de novo designed homodimeric coiled-coil peptide, unmodified scaffold] | did not displace FITC-BID | No response | 75 °C | 90% | Oligomer state [1]: 1.96 |
| COc1ccc(C2=N[C@@H](c3ccc(Cl)cc3)[C@@H](c3ccc(Cl)cc3)N2C(=O)N2CCNC(=O)C2)c(OC(C)C)c1 [Nutlin-3a] | – | – | – | – | IC50 (hDM2/Flu-p53): 273 ± 41 nM |
| Ac-G EIAALEQ EIAALEK ENAALEQ EIAALEQ GYG-NH [CC-Di-A, acidic peptide of the obligate heterodimer CC-Di-AB] | does not bind MCL-1 | No response | NA (<0) °C | 19% | MRE222 ([2]; CD at 222 nm, 20 °C, PBS pH 7.4, 50 μM of each peptide): –6577 deg cm^2 dmol res^–1 |
| Ac-G KIAALKQ KIAALKK KNAALKQ KIAALKQ GYG-NH [CC-Di-B, basic peptide of the obligate heterodimer CC-Di-AB] | neither of the free peptides, CC-Di-B or CC-Di-B_S, competed with FITC-BID | No response | 38 °C | 71% | – |
| Ac-GEILALKQEILRLIGDNVALKQEILNLKQGYG-NH2 [CC-Di_E1] | – | – | – | – | IC50 (MCL-1/FITC-BID): 700 ± 50 nM |
| Ac-G KIAALKQ KILRLIG DNVALKQ KIAALKQ GYG-NH [CC-Di-B_S, basic peptide with the short motif graft that should partner peptide CC-Di-A] | neither of the free peptides, CC-Di-B or CC-Di-B_S, competed with FITC-BID | No response | 27 °C | 46% | – |

Source: paper PMC6182421, “De novo coiled-coil peptides as scaffolds for disrupting protein–protein interactions” (Chemical Science, 2018)
